From US20110039762A1, “TARGETED ANTIMICROBIAL MOIETIES” (C3 JIAN, INC., priority 2009, published 2011)
“Also recorded” adds a separate entry of the source.

What was measured:
[1] = system: S. mutans; assay type: cell-based, Streptococcus mutans; settings: S. mutans; on Organism, effect (morphology, biofilm and growth disruption): test concentration or dose not given here
Procedure: Typically, the in vitro antimicrobial activity of antimicrobial agents is tested using standard NCCLS bacterial inhibition assays, or MIC tests (see, National Committee on Clinical Laboratory Standards “Performance Standards for Antimicrobial Susceptibility Testing,” NCCLS Document M100-S5 Vol. 14, No. 16, December 1994; “Methods for dilution antimicrobial susceptibility test for bacteria that grow aerobically-Third Edition,” Approved Standard M7-A3, National Committee for Clinical Standards, Villanova, Pa.).
Briefly, ˜1×10^5 cfu/mL bacteria were diluted in TH (S. mutans), or Mueller-Hinton (MH) broth (all other organisms) and distributed to 96-well plates. Serially-diluted (2-fold) peptides were then added and the plates incubated at 37° C. for 18-24 h. […] All experiments were conducted 10 times.

[2] = system: M. luteus; assay: Kill or inhibit growth/proliferation; morphology, biofilm and growth disruption (Tables 5, 6); assay type: cell-based, Micrococcus luteus; parameters: key: A: Peptide aggregates; B: Less hyphal formation; Clumps; Diffuse clumps and small polyps; F: Diffuse growth; H: Thin; I: Growth inhibition; Microcolony formation; Rippled; Small polyps; Thick; W: Halo formation on top, microlonies on bottom; further: test concentration or dose not given here
[3] = system: MRSA; assay: as above; assay type: cell-based, Methicillin-resistant Staphylococcus aureus; parameters: key: A: Peptide aggregates; B: Less hyphal formation; Clumps; Diffuse clumps and small polyps; F: Diffuse growth; H: Thin; I: Growth inhibition; Microcolony formation; Rippled; Small polyps; Thick; W: Halo formation on top, microlonies on bottom; further: test concentration or dose not given here
[4] = system: S. epidermidis; assay: as above; assay type: cell-based, Staphylococcus epidermidis; parameters: key: A: Peptide aggregates; B: Less hyphal formation; Clumps; Diffuse clumps and small polyps; F: Diffuse growth; H: Thin; I: Growth inhibition; Microcolony formation; Rippled; Small polyps; Thick; W: Halo formation on top, microlonies on bottom; further: test concentration or dose not given here
[5] = system: S. mutans; assay: as above; assay type: cell-based, Streptococcus mutans; parameters: key: A: Peptide aggregates; B: Less hyphal formation; Clumps; Diffuse clumps and small polyps; F: Diffuse growth; H: Thin; I: Growth inhibition; Microcolony formation; Rippled; Small polyps; Thick; W: Halo formation on top, microlonies on bottom
[6] = system: S. pneumoniae; assay: as above; assay type: cell-based, Streptococcus pneumoniae; parameters: key: A: Peptide aggregates; B: Less hyphal formation; Clumps; Diffuse clumps and small polyps; F: Diffuse growth; H: Thin; I: Growth inhibition; Microcolony formation; Rippled; Small polyps; Thick; W: Halo formation on top, microlonies on bottom; further: test concentration or dose not given here
[7] = system: E. coli; assay: as above; assay type: cell-based, Escherichia coli; parameters: key: A: Peptide aggregates; B: Less hyphal formation; Clumps; Diffuse clumps and small polyps; F: Diffuse growth; H: Thin; I: Growth inhibition; Microcolony formation; Rippled; Small polyps; Thick; W: Halo formation on top, microlonies on bottom; further: test concentration or dose not given here
[8] = system: P. aeruginosa; assay: as above; assay type: cell-based, Pseudomonas aeruginosa; parameters: key: A: Peptide aggregates; B: Less hyphal formation; Clumps; Diffuse clumps and small polyps; F: Diffuse growth; H: Thin; I: Growth inhibition; Microcolony formation; Rippled; Small polyps; Thick; W: Halo formation on top, microlonies on bottom; further: test concentration or dose not given here
[9] = system: microorganisms (e.g., bacteria, yeasts, fungi); assay: Targeting peptide binding to target microorganisms (Table 3); settings: peptide binding in aqueous buffers varied by peptide solubility; preferably 1x PBS
[10] = system: microorganisms; assay: Peptides having multiple activities (targeting/binding, antimicrobial, growth or phenotype altering)
Excerpt: In certain embodiments, peptides described herein can have multiple activities. Thus for example, a peptide can have both binding/targeting activity and antimicrobial activity. Such peptides can be used, e.g., in a chimeric construct, for any or all of these properties. Thus, for example, a peptide designated “B” in Table 8 can be used as a targeting peptide. If it is also designated G or M it can also be used for antimicrobial activity.

[11] = system: F. nucleatum; assay: Kill or inhibit growth/proliferation; morphology, biofilm and growth disruption (Tables 5, 6); assay type: cell-based, Fusobacterium nucleatum; parameters: key: A: Peptide aggregates; B: Less hyphal formation; Clumps; Diffuse clumps and small polyps; F: Diffuse growth; H: Thin; I: Growth inhibition; Microcolony formation; Rippled; Small polyps; Thick; W: Halo formation on top, microlonies on bottom; further: test concentration or dose not given here
[12] = system: B. subtilis; assay: as above; assay type: cell-based, Bacillus subtilis; parameters: key: A: Peptide aggregates; B: Less hyphal formation; Clumps; Diffuse clumps and small polyps; F: Diffuse growth; H: Thin; I: Growth inhibition; Microcolony formation; Rippled; Small polyps; Thick; W: Halo formation on top, microlonies on bottom; further: test concentration or dose not given here
[13] = system: C. jeikeium; assay: as above; assay type: cell-based, Corynebacterium jeikeium; parameters: key: A: Peptide aggregates; B: Less hyphal formation; Clumps; Diffuse clumps and small polyps; F: Diffuse growth; H: Thin; I: Growth inhibition; Microcolony formation; Rippled; Small polyps; Thick; W: Halo formation on top, microlonies on bottom; further: test concentration or dose not given here
[14] = system: C. jejuni; assay: as above; assay type: cell-based, Campylobacter jejuni; parameters: key: A: Peptide aggregates; B: Less hyphal formation; Clumps; Diffuse clumps and small polyps; F: Diffuse growth; H: Thin; I: Growth inhibition; Microcolony formation; Rippled; Small polyps; Thick; W: Halo formation on top, microlonies on bottom; further: test concentration or dose not given here
[15] = system: C. albicans; assay: as above; assay type: cell-based, Candida albicans; parameters: key: A: Peptide aggregates; B: Less hyphal formation; Clumps; Diffuse clumps and small polyps; F: Diffuse growth; H: Thin; I: Growth inhibition; Microcolony formation; Rippled; Small polyps; Thick; W: Halo formation on top, microlonies on bottom; further: test concentration or dose not given here

FIRKFLKKWLL [Peptide K-9]
MIC [1]: S. mutans, 4 μM

FLKFLKKFFKKLKY [Peptide K-20]
MIC [1]: S. mutans, 8 μM

FTRKFLKFLHL [Peptide K-17]
MIC [1]: S. mutans, 8 μM

GIFKKFVKILYKVQKL [Peptide K-22]
MIC [1]: S. mutans, 8 μM

GILKKLFTKVF [Peptide K-13]
MIC [1]: S. mutans, 16 μM

GLGRVIGRLIKQIIWRR [Peptide K-1]
MIC [1]: S. mutans, 25 μM

GWLKMFKKIIGKFGKF [Peptide K-21]
MIC [1]: S. mutans, 8 μM

KILKFLFKKVF [Peptide K-8]
MIC [1]: S. mutans, 4 μM

KILKFLFKQVF [Peptide K-11]
MIC [1]: S. mutans, 4 μM

KILKKLFKFVF [Peptide K-12]
MIC [1]: S. mutans, 8 μM

KKFKKFKVLKIL [Peptide K-18]
MIC [1]: S. mutans, 16 μM

KLFKFLRKHLL [Peptide K-10]
MIC [1]: S. mutans, 4 μM

LLKLLKLKKLKF [Peptide K-19]
MIC [1]: S. mutans, 16 μM

LRKFLHKLF [Peptide K-14]
MIC [1]: S. mutans, 8 μM

LRKNLRWLF [Peptide K-15]
MIC [1]: S. mutans, 4 μM

NYRLVNAIFSKIFKKKFIKF [Peptide K-7]
MIC [1]: S. mutans, 12.5 μM

PF-746: peptide having multiple activities (FLGNSQYFTRK; Peptide with targeting and/or antimicrobial activity)
Organism, effect (morphology, biofilm and growth disruption) [2]: M. luteus (C) | Organism, effect (morphology, biofilm and growth disruption) [3]: MRSA (C) | Organism, effect (morphology, biofilm and growth disruption) [4]: S. epidermidis (C) | Organism, effect (morphology, biofilm and growth disruption) [5]: S. mutans (D) | Organism, effect (morphology, biofilm and growth disruption) [6]: S. pneumoniae (C) | Organism, effect (morphology, biofilm and growth disruption) [7]: E. coli (C) | Organism, effect (morphology, biofilm and growth disruption) [8]: P. aeruginosa (A) | Target(s) (microorganisms bound by the targeting peptide) [9]: S. epidermidis; also recorded: M. luteus; also recorded: E. coli; also recorded: C. albicans; also recorded: S. pneumoniae; also recorded: E. faecalis; also recorded: C. jeikeium | Activities [10]: G B

PF-761: peptide having multiple activities (SKFELVNYASGCSCGADCKCASETECKCASKK; Peptide with targeting and/or antimicrobial activity)
Organism, effect (morphology, biofilm and growth disruption) [2]: M. luteus (C) | Organism, effect (morphology, biofilm and growth disruption) [3]: MRSA (D) | Organism, effect (morphology, biofilm and growth disruption) [4]: S. epidermidis (C) | Organism, effect (morphology, biofilm and growth disruption) [5]: S. mutans (D) | Organism, effect (morphology, biofilm and growth disruption) [6]: S. pneumoniae (C) | Organism, effect (morphology, biofilm and growth disruption) [7]: E. coli (C) | Organism, effect (morphology, biofilm and growth disruption) [8]: P. aeruginosa (C) | Target(s) (microorganisms bound by the targeting peptide) [9]: S. epidermidis and M. luteus and P. mirabilis and P. aeruginosa and C. albicans and MRSA and S. pneumoniae and E. faecalis | Activities [10]: G B

PF-C064: peptide having multiple activities (DEEALEMGANLYAQFAIDFLNSKK; Peptide with targeting and/or antimicrobial activity)
Organism, effect (morphology, biofilm and growth disruption) [11]: F. nucleatum (T) | Target(s) (microorganisms bound by the targeting peptide) [9]: A. naeslundii; also recorded: F. nucleatum; also recorded: P. gingivalis; also recorded: S. mutans; also recorded: T. denticola | Activities [10]: G B

PF-C069: peptide having multiple activities (NALMLREMQLAKNIKVEVTDVLSNKKYC; Peptide with targeting and/or antimicrobial activity)
Organism, effect (morphology, biofilm and growth disruption) [11]: F. nucleatum (T) | Target(s) (microorganisms bound by the targeting peptide) [9]: A. naeslundii; also recorded: F. nucleatum; also recorded: P. gingivalis; also recorded: S. mutans; also recorded: T. denticola | Activities [10]: G B

PF-C071: peptide having multiple activities (QVIVKIL; Peptide with targeting and/or antimicrobial activity)
Organism, effect (morphology, biofilm and growth disruption) [11]: F. nucleatum (T) | Target(s) (microorganisms bound by the targeting peptide) [9]: A. naeslundii; also recorded: F. nucleatum; also recorded: S. mutans | Activities [10]: G B

PF-C091: peptide having multiple activities (ASNTPRFVRLTLFNFYSKIWNVTHLFLFNNL; Peptide with targeting and/or antimicrobial activity)
Organism, effect (morphology, biofilm and growth disruption) [11]: F. nucleatum (T) | Target(s) (microorganisms bound by the targeting peptide) [9]: A. naeslundii; also recorded: F. nucleatum; also recorded: P. gingivalis; also recorded: S. mutans; also recorded: T. denticola | Activities [10]: G B

PF-C120: peptide having multiple activities (ASLSTMTFKVMELKELIILLCGLTMLMIQTEFV; Peptide with targeting and/or antimicrobial activity)
Organism, effect (morphology, biofilm and growth disruption) [11]: F. nucleatum (T) | Target(s) (microorganisms bound by the targeting peptide) [9]: A. naeslundii; also recorded: F. nucleatum; also recorded: P. gingivalis; also recorded: S. mutans; also recorded: T. denticola | Activities [10]: G B

PF-C137: peptide having multiple activities (QRMYWFKRGFETGDFSAGDTFAELK; Peptide with targeting and/or antimicrobial activity)
Organism, effect (morphology, biofilm and growth disruption) [11]: F. nucleatum (T) | Target(s) (microorganisms bound by the targeting peptide) [9]: A. naeslundii; also recorded: F. nucleatum; also recorded: P. gingivalis; also recorded: S. mutans | Activities [10]: G B

PF-C214 (GGHKQLVIEPLVSQ; Peptide with targeting and/or antimicrobial activity)
Organism, effect (morphology, biofilm and growth disruption) [11]: F. nucleatum (T)

PF-S003: peptide having multiple activities (ALALLKQDLLNFEGRGRIITSTYLQFNEGCVP; Peptide with targeting and/or antimicrobial activity)
Organism, effect (morphology, biofilm and growth disruption) [12]: B. subtilis (A) | Organism, effect (morphology, biofilm and growth disruption) [13]: C. jeikeium (D) | Organism, effect (morphology, biofilm and growth disruption) [2]: M. luteus (R) | Organism, effect (morphology, biofilm and growth disruption) [3]: MRSA (M) | Organism, effect (morphology, biofilm and growth disruption) [4]: S. epidermidis (R) | Organism, effect (morphology, biofilm and growth disruption) [6]: S. pneumoniae (D) | Organism, effect (morphology, biofilm and growth disruption) [14]: C. jejuni (D) | Organism, effect (morphology, biofilm and growth disruption) [8]: P. aeruginosa (A) | Organism, effect (morphology, biofilm and growth disruption) [15]: C. albicans (A) | Activities [10]: G B

VYRKRKSILKIYAKLKGWH [Peptide K-2]
MIC [1]: S. mutans, 12.5 μM
